Test results taken from US20260070945A1, “MACROCYCLIC IMMUNOMODULATORS” (Bristol-Myers Squibb Company, priority 2022, published 2026).
Where a SMILES comes first, the peptide text is derived from it. Bridges are numbered along the chain shown (N, C = ends). [ ]: non-standard residue; d: D form. The star is where a group is joined. ξ: configuration not given here. Phe(3-CF3) = N[C@@H](Cc1cccc(C(F)(F)F)c1)C(=O)O; Phe(4-COOH) = N[C@@H](Cc1ccc(C(=O)O)cc1)C(=O)O; Bip = N[C@@H](Cc1ccc(-c2ccccc2)cc1)C(=O)O; NH(CH2)14COOH = O=C(O)CCCCCCCCCCCCCCN*; Phe(3-Me) = Cc1cccc(C[C@H](N)C(=O)O)c1; NH(CH2)12COOH = O=C(O)CCCCCCCCCCCCN*; His(π-Me) = Cn1cncc1C[C@H](N)C(=O)O; Val(3-OH) = CC(C)(O)[C@H](N)C(=O)O; 4Pal = N[C@@H](Cc1ccncc1)C(=O)O; Cha = N[C@@H](CC1CCCCC1)C(=O)O; Cit = NC(=O)NCCC[C@H](N)C(=O)O; Ile(3ξ) = CCC(C)[C@H](N)C(=O)O; Thr(3ξ) = CC(O)[C@H](N)C(=O)O; 12Ado = NCCCCCCCCCCCC(=O)O; hSer = N[C@@H](CCO)C(=O)O; Carboxymethyl = O=C(O)C*; NMeA = CN[C@@H](C)C(=O)O; Orn = NCCC[C@H](N)C(=O)O; Aun = NCCCCCCCCCCC(=O)O; Dab = NCC[C@H](N)C(=O)O; Dap = NC[C@H](N)C(=O)O; AEEA = NCCOCCOCC(=O)O; ξC = NC(CS)C(=O)O

Target: T1, PD-1/PD-L1 interaction (PE-labeled human PD-L1-Ig binding to Jurkat cell line over-expressing human PD-1) (Homo sapiens, UniProt Q15116)
T1 construct: expressed in transfected cells; host or cells: Jurkat
Experiment: Jurkat-PD-1 Cell Binding High-Content Screening Assay (CBA)
Conditions: Jurkat-hPD-1 cells, PE-labeled PD-L1-Ig 20 nM final; read-out: Jurkat HPD1 PDL1 IC50
Procedure, shortened: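 Compound is added first to the PD-1-expressing Jurkat cells and held 2 h at 37 °C in serum-containing DMEM. The fluorescent PD-L1 fusion follows at 20 nM final for 1 h. Fixed, Hoechst-stained cells are then imaged for bound label.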

T1 sequence (Q15116 25-288): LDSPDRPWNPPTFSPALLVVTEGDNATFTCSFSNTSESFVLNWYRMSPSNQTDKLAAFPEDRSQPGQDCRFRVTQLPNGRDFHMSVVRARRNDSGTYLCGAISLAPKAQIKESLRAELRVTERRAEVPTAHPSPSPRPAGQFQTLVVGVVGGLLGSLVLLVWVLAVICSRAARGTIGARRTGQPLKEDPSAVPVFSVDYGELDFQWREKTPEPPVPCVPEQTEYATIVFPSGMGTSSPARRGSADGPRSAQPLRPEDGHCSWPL

SMILES	IC50 [nM]
COC[C@@H]1NC(=O)CSC[C@@H](C(=O)N[C@@H](CCN)C(=O)NCCCCCCCCCCCCC(=O)O)NC(=O)[C@H](CO)NC(=O)[C@H](C(C)(C)O)NC(=O)[C@H](CC2CCCCC2)NC(=O)[C@H](CCN)NC(=O)[C@@H](CC(C)C)NC(=O)[C@H](C)N(C)C(=O)[C@H](CCC(N)=O)NC(=O)[C@H](Cc2ccc(-c3ccccc3)cc2)NC(=O)[C@H](Cc2ccc(C(=O)O)cc2)NC(=O)[C@H](Cc2cccc(C(F)(F)F)c2)NC(=O)[C@H](CC(=O)O)NC(=O)[C@H](Cc2ccc(OCC(=O)O)cc2)NC1=O [Example 1136] ({CH2CO}-S(Me)Y(Carboxymethyl)D[Phe(3-CF3)][Phe(4-COOH)][Bip]Q[NMeA][dL][Dab][Cha][Val(3-OH)]SC[Dab]-{NH(CH2)12COOH}; thioether N-14)	18.1
Cc1cccc(C[C@@H]2NC(=O)[C@H](CC(=O)O)NC(=O)[C@H](Cc3ccc(OCC(=O)O)cc3)NC(=O)[C@H](CN)NC(=O)CSC[C@@H](C(=O)N[C@@H](CCN)C(=O)NCCOCCOCC(=O)NCCCCCCCCCCC(=O)O)NC(=O)[C@H](CCCN)NC(=O)[C@H](C(C)C)NC(=O)[C@H](CC3CCCCC3)NC(=O)[C@H](CCN)NC(=O)[C@@H](CC(C)C)NC(=O)[C@H](C)N(C)C(=O)[C@H](Cc3ccc(O)cc3)NC(=O)[C@H](Cc3ccc(-c4ccccc4)cc3)NC(=O)[C@H](Cc3ccc(O)cc3)NC2=O)c1 [Example 1312] ({CH2CO}-[Dap]Y(Carboxymethyl)D[Phe(3-Me)]Y[Bip]Y[NMeA][dL][Dab][Cha]V[Orn]C[Dab][AEEA][Aun]-OH; thioether N-14)	27.4
Cc1cccc(C[C@@H]2NC(=O)[C@H](CC(=O)O)NC(=O)[C@H](Cc3ccc(OCC(=O)O)cc3)NC(=O)[C@H](Cc3cncn3C)NC(=O)CSC[C@@H](C(=O)N[C@@H](CCN)C(=O)NCCCCCCCCCCC(=O)O)NC(=O)[C@H](CO)NC(=O)[C@H](C(C)C)NC(=O)[C@H](CC3CCCCC3)NC(=O)[C@H](CCN)NC(=O)[C@@H](CC(C)C)NC(=O)[C@H](C)N(C)C(=O)[C@H](Cc3ccc(O)cc3)NC(=O)[C@H](Cc3ccc(-c4ccccc4)cc3)NC(=O)[C@H](Cc3ccc(OCC(=O)O)cc3)NC2=O)c1 [Example 1281] ({CH2CO}-[His(π-Me)]Y(Carboxymethyl)D[Phe(3-Me)]Y(Carboxymethyl)[Bip]Y[NMeA][dL][Dab][Cha]VSC[Dab][Aun]-OH; thioether N-14)	22.1
CC(C)C[C@@H]1NC(=O)[C@H](Cc2c[nH]c3ccccc23)NC(=O)[C@H](CC(=O)O)NC(=O)[C@H](Cc2ccncc2)NC(=O)[C@H](Cc2ccc(OCC(=O)O)cc2)NC(=O)CSC[C@@H](C(=O)N[C@@H](CCCN)C(=O)NCCCCCCCCCCC(=O)O)NC(=O)[C@H](CCC(=O)O)NC(=O)[C@H](C(C)C)NC(=O)[C@H](CC2CCCCC2)NC(=O)[C@H](CCN)NC(=O)[C@@H](CC(C)C)NC(=O)[C@H](C)N(C)C(=O)[C@H](C(C)C)NC(=O)[C@H](Cc2ccc(-c3ccccc3)cc2)NC1=O [Example 1332] ({CH2CO}-Y(Carboxymethyl)[4Pal]DWL[Bip]V[NMeA][dL][Dab][Cha]VEC[Orn][Aun]-OH; thioether N-14)	14.5
CC(C)C[C@H]1NC(=O)[C@H](C)N(C)C(=O)[C@H](CCCNC(N)=O)NC(=O)[C@H](Cc2ccc(-c3ccccc3)cc2)NC(=O)[C@H](C(C)C)NC(=O)[C@H](Cc2c[nH]c3ccccc23)NC(=O)[C@H](CC(=O)O)NC(=O)[C@H](Cc2ccc(OCC(=O)O)cc2)NC(=O)[C@H](CCCNC(=N)N)NC(=O)CSC[C@@H](C(=O)N[C@@H](CCN)C(=O)NCCCCCCCCCCC(=O)O)NC(=O)[C@H]([C@@H](C)O)NC(=O)[C@H](C(C)C)NC(=O)[C@H](CC2CCCCC2)NC(=O)[C@H](CCN)NC1=O [Example 1353] ({CH2CO}-RY(Carboxymethyl)DWV[Bip][Cit][NMeA][dL][Dab][Cha]VTC[Dab][Aun]-OH; thioether N-14)	16.3

The remaining lines, values ahead:

IC50 [nM]	SMILES
30.3	CC(C)C[C@H]1NC(=O)[C@H](C)N(C)C(=O)[C@H](C(C)C)NC(=O)[C@H](Cc2ccc(-c3ccccc3)cc2)NC(=O)[C@H](C(C)C)NC(=O)[C@H](Cc2c[nH]c3ccccc23)NC(=O)[C@H](CC(=O)O)NC(=O)[C@H](Cc2ccncc2)NC(=O)[C@H](Cc2ccc(OCC(=O)O)cc2)NC(=O)CSC[C@@H](C(=O)N[C@@H](CCN)C(=O)NCCOCCOCC(=O)NCCCCCCCCCCCC(=O)O)NC(=O)[C@H](CO)NC(=O)[C@H](C(C)C)NC(=O)[C@H](CC2CCCCC2)NC(=O)[C@H](CCN)NC1=O [Example 2117] ({CH2CO}-Y(Carboxymethyl)[4Pal]DWV[Bip]V[NMeA][dL][Dab][Cha]VSC[Dab][AEEA][12Ado]-OH; thioether N-14)
8.7	CCC(C)[C@@H]1NC(=O)[C@H](Cc2ccc(-c3ccccc3)cc2)NC(=O)[C@H](CC(C)C)NC(=O)[C@H](Cc2c[nH]c3ccccc23)NC(=O)[C@H](CC(=O)O)NC(=O)[C@H](Cc2ccc(OCC(=O)O)cc2)NC(=O)[C@H](Cc2ccncc2)NC(=O)CSC[C@@H](C(=O)N[C@@H](CCCN)C(=O)NCCOCCOCC(=O)NCCCCCCCCCCC(=O)O)NC(=O)[C@H](C(C)O)NC(=O)[C@H](C(C)C)NC(=O)[C@H](CC2CCCCC2)NC(=O)[C@H](CCN)NC(=O)[C@@H](CC(C)C)NC(=O)[C@H](C)N(C)C1=O (stereo partly drawn) [Example 2040] ({CH2CO}-[4Pal]Y(Carboxymethyl)DWL[Bip][Ile(3ξ)][NMeA][dL][Dab][Cha]V[Thr(3ξ)]C[Orn][AEEA][Aun]-OH; thioether N-14)
24.9	CC(=O)NCCCC[C@@H]1NC(=O)[C@H](Cc2ccc(-c3ccccc3)cc2)NC(=O)[C@H](Cc2ccc(O)cc2)NC(=O)[C@H](Cc2cccc(C)c2)NC(=O)[C@H](CC(=O)O)NC(=O)[C@H](Cc2ccc(OCC(=O)O)cc2)NC(=O)[C@H](Cc2ccc(OCC(=O)O)cc2)NC(=O)CSC[C@@H](C(=O)NCCOCCOCC(=O)NCCCCCCCCCCC(=O)O)NC(=O)[C@H](CCO)NC(=O)[C@H](C(C)C)NC(=O)[C@H](CC2CCCCC2)NC(=O)[C@H](CCN)NC(=O)[C@@H](CC(C)C)NC(=O)[C@H](C)N(C)C1=O [Example 2422] ({CH2CO}-Y(Carboxymethyl)Y(Carboxymethyl)D[Phe(3-Me)]Y[Bip]K(Ac)[NMeA][dL][Dab][Cha]V[hSer]C[AEEA][Aun]-OH; thioether N-14)
15.3	Cc1cccc(C[C@@H]2NC(=O)[C@H](CC(=O)O)NC(=O)[C@H](Cc3ccc(OCC(=O)O)cc3)NC(=O)[C@H](Cc3ccc(OCC(=O)O)cc3)NC(=O)CSC[C@@H](C(=O)N[C@@H](CO)C(=O)NCCCCCCCCCCC(=O)O)NC(=O)[C@H](C(C)O)NC(=O)[C@H](C(C)O)NC(=O)[C@H](CC3CCCCC3)NC(=O)[C@H](CCN)NC(=O)[C@@H](CC(C)C)NC(=O)[C@H](C)N(C)C(=O)[C@H](CCCNC(=N)N)NC(=O)[C@H](Cc3ccc(-c4ccccc4)cc3)NC(=O)[C@H](C(C)C)NC2=O)c1 (stereo partly drawn) [Example 2383] ({CH2CO}-Y(Carboxymethyl)Y(Carboxymethyl)D[Phe(3-Me)]V[Bip]R[NMeA][dL][Dab][Cha][Thr(3ξ)][Thr(3ξ)]CS[Aun]-OH; thioether N-14)

Same assay, conditions: PE-labeled PD-L1-Ig 20 nM final, Jurkat-hPD-1 cells; read-out: Jurkat HPD1 PDL1 IC50

IC50 [nM]	SMILES
0.7	Cc1cccc(C[C@@H]2NC(=O)[C@H](CC(=O)O)NC(=O)[C@H](Cc3ccc(C(=O)O)cc3)NC(=O)[C@H](C(C)O)NC(=O)CSC[C@@H](C(=O)N[C@@H](CCN)C(=O)NCCOCCOCC(=O)NCCCCCCCCCCC(=O)O)NC(=O)[C@H](CC(=O)O)NC(=O)[C@H](C(C)C)NC(=O)[C@H](CC3CCCCC3)NC(=O)[C@H](CCN)NC(=O)[C@@H](CC(C)C)NC(=O)[C@H](C)N(C)C(=O)[C@H](Cc3ccc(C(=O)O)cc3)NC(=O)[C@H](Cc3ccc(-c4ccccc4)cc3)NC(=O)[C@H](Cc3ccc(C(=O)O)cc3)NC2=O)c1 (stereo partly drawn) [Example 2557] ({CH2CO}-[Thr(3ξ)][Phe(4-COOH)]D[Phe(3-Me)][Phe(4-COOH)][Bip][Phe(4-COOH)][NMeA][dL][Dab][Cha]VDC[Dab][AEEA][Aun]-OH; thioether N-14)
39.9	Cc1cccc(C[C@@H]2NC(=O)[C@H](CC(=O)O)NC(=O)[C@H](Cc3ccc(C(=O)O)cc3)NC(=O)[C@H](C(C)O)NC(=O)CSCC(C(=O)N[C@@H](CCN)C(=O)NCCCCCCCCCCCCC(=O)O)NC(=O)[C@H](CO)NC(=O)[C@H](C(C)(C)O)NC(=O)[C@H](CC3CCCCC3)NC(=O)[C@H](CCN)NC(=O)[C@@H](CC(C)C)NC(=O)[C@H](C)N(C)C(=O)[C@H](CCCNC(=N)N)NC(=O)[C@H](Cc3ccc(-c4ccccc4)cc3)NC(=O)[C@H](Cc3ccc(O)cc3)NC2=O)c1 (stereo partly drawn) [Example 2643] ({CH2CO}-[Thr(3ξ)][Phe(4-COOH)]D[Phe(3-Me)]Y[Bip]R[NMeA][dL][Dab][Cha][Val(3-OH)]S[ξC][Dab]-{NH(CH2)12COOH}; thioether N-14)
190	CC(C)C[C@H]1NC(=O)[C@H](C)N(C)C(=O)[C@H](CCCNC(N)=O)NC(=O)[C@H](Cc2ccc(-c3ccccc3)cc2)NC(=O)[C@H](Cc2ccc(OCC(=O)O)cc2)NC(=O)[C@H](Cc2cccc(C(F)(F)F)c2)NC(=O)[C@H](CC(=O)O)NC(=O)[C@H](Cc2ccc(OCC(=O)O)cc2)NC(=O)[C@H](Cc2ccc(OCC(=O)O)cc2)NC(=O)CSC[C@@H](C(=O)N[C@@H](CCN)C(=O)NCCCCCCCCCCCCCCC(=O)O)NC(=O)[C@H](CCC(=O)O)NC(=O)[C@H](C(C)(C)O)NC(=O)[C@H](CC2CCCCC2)NC(=O)[C@H](CCN)NC1=O [Example 2625] ({CH2CO}-Y(Carboxymethyl)Y(Carboxymethyl)D[Phe(3-CF3)]Y(Carboxymethyl)[Bip][Cit][NMeA][dL][Dab][Cha][Val(3-OH)]EC[Dab]-{NH(CH2)14COOH}; thioether N-14)
